Legend:
Format in all cases: functional
PC-3 = assay: Growth inhibition of human PC3 cells after 48 hrs by sulforhodamine B assay; conditions: PC-3, 48 h
NCI-H226 = assay: Growth inhibition of human NCI-H226 cells after 48 hrs by sulforhodamine B assay; conditions: NCI-H226, 48 h
RXF 393 = assay: Growth inhibition of human RXF393 cells after 48 hrs by sulforhodamine B assay; conditions: RXF 393, 48 h
SF-539 = assay: Growth inhibition of human SF539 cells after 48 hrs by sulforhodamine B assay; conditions: SF-539, 48 h
T47D = assay: Growth inhibition of human T47D cells after 48 hrs by sulforhodamine B assay
HT-29 = assay: Growth inhibition of human HT-29 cells after 48 hrs by sulforhodamine B assay; conditions: HT-29, 48 h
NCI-H460 = assay: Growth inhibition of human NCI-H460 cells after 48 hrs by sulforhodamine B assay; conditions: NCI-H460, 48 h
SK-MEL-5 = assay: Growth inhibition of human SK-MEL-5 cells after 48 hrs by sulforhodamine B assay; conditions: SK-MEL-5, 48 h
NCI-H322M = assay: Growth inhibition of human NCI-H322M cells after 48 hrs by sulforhodamine B assay
COLO 205 = assay: Growth inhibition of human COLO205 cells after 48 hrs by sulforhodamine B assay; conditions: COLO 205, 48 h
HL-60(TB) = assay: Growth inhibition of human HL-60(TB) cells after 48 hrs by sulforhodamine B assay; conditions: HL-60, 48 h
K562 = assay: Growth inhibition of human K562 cells after 48 hrs by sulforhodamine B assay; conditions: K562, 48 h
HOP-92 = assay: Growth inhibition of human HOP92 cells after 48 hrs by sulforhodamine B assay; conditions: HOP-92, 48 h
DU-145 = assay: Growth inhibition of human DU145 cells after 48 hrs by sulforhodamine B assay; conditions: DU-145, 48 h
SR = assay: Growth inhibition of human SR cells after 48 hrs by sulforhodamine B assay
MDA-MB-468 = assay: Growth inhibition of human MDA-MB-468 cells after 48 hrs by sulforhodamine B assay; conditions: MDA-MB-468, 48 h
NCI-H522 = assay: Growth inhibition of human NCI-H522 cells after 48 hrs by sulforhodamine B assay; conditions: NCI-H522, 48 h
UACC-62 = assay: Growth inhibition of human UACC62 cells after 48 hrs by sulforhodamine B assay; conditions: UACC-62, 48 h
SK-OV-3 = assay: Growth inhibition of human SKOV3 cells after 48 hrs by sulforhodamine B assay; conditions: SK-OV-3, 48 h
SK-MEL-28 = assay: Growth inhibition of human SK-MEL-28 cells after 48 hrs by sulforhodamine B assay; conditions: SK-MEL-28, 48 h
Malme-3M = assay: Growth inhibition of human MALME-3M cells after 48 hrs by sulforhodamine B assay
OVCAR-4 = assay: Growth inhibition of human OVCAR4 cells after 48 hrs by sulforhodamine B assay; conditions: OVCAR-4, 48 h
OVCAR-8 = assay: Growth inhibition of human OVCAR8 cells after 48 hrs by sulforhodamine B assay; conditions: OVCAR-8, 48 h
UO-31 = assay: Growth inhibition of human UO31 cells after 48 hrs by sulforhodamine B assay; conditions: UO-31, 48 h
OVCAR-5 = assay: Growth inhibition of human OVCAR5 cells after 48 hrs by sulforhodamine B assay; conditions: OVCAR-5, 48 h
A498 = assay: Growth inhibition of human A498 cells after 48 hrs by sulforhodamine B assay; conditions: A498, 48 h
SF-268 = assay: Growth inhibition of human SF268 cells after 48 hrs by sulforhodamine B assay; conditions: SF-268, 48 h
[1] = Potency index, ratio of compound effect to PTL effect for cytotoxicity against human M9-ENL1 cells
LOX IMVI = assay: Growth inhibition of human LOXIMVI cells after 48 hrs by sulforhodamine B assay
M14 = assay: Growth inhibition of human M14 cells after 48 hrs by sulforhodamine B assay; conditions: M14, 48 h
UACC-257 = assay: Growth inhibition of human UACC257 cells after 48 hrs by sulforhodamine B assay; conditions: UACC-257, 48 h
OVCAR-3 = assay: Growth inhibition of human OVCAR3 cells after 48 hrs by sulforhodamine B assay; conditions: OVCAR-3, 48 h
CAKI-1 = assay: Growth inhibition of human Caki1 cells after 48 hrs by sulforhodamine B assay; conditions: CAKI-1, 48 h
U-251 = assay: Growth inhibition of human U251 cells after 48 hrs by sulforhodamine B assay; conditions: U-251, 48 h
CCRF-CEM = assay: Growth inhibition of human CCRF-CEM cells after 48 hrs by sulforhodamine B assay
MCF7 = assay: Growth inhibition of human MCF7 cells after 48 hrs by sulforhodamine B assay; conditions: MCF7, 48 h
HCT-116 = assay: Growth inhibition of human HCT116 cells after 48 hrs by sulforhodamine B assay; conditions: HCT-116, 48 h
[2] = Induction of apoptosis in human M9-ENL1 cells assessed as cell death after 24 hrs by Annexin V/PI or 7-AAD staining based flow cytometry; conditions: M9-ENL1, 24 h, read-out: LC50 (the source's name)
SK-MEL-2 = assay: Growth inhibition of human SK-MEL-2 cells after 48 hrs by sulforhodamine B assay; conditions: SK-MEL-2, 48 h
MDA-MB-231 = assay: Growth inhibition of human MDA-MB-231 cells after 48 hrs by sulforhodamine B assay; conditions: MDA-MB-231, 48 h
MOLT-4 = assay: Growth inhibition of human MOLT4 cells after 48 hrs by sulforhodamine B assay; conditions: MOLT-4, 48 h
SW-620 = assay: Growth inhibition of human SW620 cells after 48 hrs by sulforhodamine B assay; conditions: SW-620, 48 h
Hs-578T = assay: Growth inhibition of human Hs 578T cells after 48 hrs by sulforhodamine B assay
SNB-19 = assay: Growth inhibition of human SNB19 cells after 48 hrs by sulforhodamine B assay; conditions: SNB-19, 48 h
KM12 = assay: Growth inhibition of human KM12 cells after 48 hrs by sulforhodamine B assay; conditions: KM12, 48 h
SNB-75 = assay: Growth inhibition of human SNB75 cells after 48 hrs by sulforhodamine B assay; conditions: SNB-75, 48 h
ACHN = assay: Growth inhibition of human ACHN cells after 48 hrs by sulforhodamine B assay
BT-549 = assay: Growth inhibition of human BT549 cells after 48 hrs by sulforhodamine B assay; conditions: BT-549, 48 h
MDA-MB-435 = assay: Growth inhibition of human MDA-MB-435 cells after 48 hrs by sulforhodamine B assay; conditions: MDA-MB-435, 48 h
HCC 2998 = assay: Growth inhibition of human HCC2998 cells after 48 hrs by sulforhodamine B assay; conditions: HCC 2998, 48 h
HCT-15 = assay: Growth inhibition of human HCT15 cells after 48 hrs by sulforhodamine B assay; conditions: HCT-15, 48 h
[3] = Growth inhibition of human M9-ENL1 cells after 24 hrs by trypan blue assay; conditions: M9-ENL1, 24 h
786-0 = assay: Growth inhibition of human 786-0 cells after 48 hrs by sulforhodamine B assay; conditions: 786-0, 48 h
SN12C = assay: Growth inhibition of human SN12C cells after 48 hrs by sulforhodamine B assay
A549 = assay: Growth inhibition of human A549/ATCC cells after 48 hrs by sulforhodamine B assay; conditions: A549, 48 h
RPMI-8226 = assay: Growth inhibition of human RPMI8226 cells after 48 hrs by sulforhodamine B assay; conditions: RPMI-8226, 48 h
NCI/ADR-RES = assay: Growth inhibition of human NCI-ADR-RES cells after 48 hrs by sulforhodamine B assay
TK-10 = assay: Growth inhibition of human TK10 cells after 48 hrs by sulforhodamine B assay; conditions: TK-10, 48 h
NCI-H23 = assay: Growth inhibition of human NCI-H23 cells after 48 hrs by sulforhodamine B assay; conditions: NCI-H23, 48 h
SF-295 = assay: Growth inhibition of human SF295 cells after 48 hrs by sulforhodamine B assay; conditions: SF-295, 48 h

C=C1C(=O)O[C@H]2[C@H]1CC/C(COC(=O)CCC(=O)N1CCC(C)CC1)=C\CC[C@@]1(C)O[C@@H]21
GI50 (PC-3): 13 µM
GI50 (NCI-H226): 3.51 µM
GI50 (RXF 393): 1.91 µM
GI50 (SF-539): 2.35 µM
GI50 (T47D): 5.45 µM
GI50 (HT-29): 4.28 µM
GI50 (NCI-H460): 16 µM
GI50 (SK-MEL-5): 7.17 µM
GI50 (NCI-H322M): 17.6 µM
GI50 (COLO 205): 2.94 µM
GI50 (HL-60(TB)): 3.16 µM
GI50 (K562): 3.06 µM
GI50 (HOP-92): 2.05 µM
GI50 (DU-145): 4.44 µM
GI50 (SR): 2.72 µM
GI50 (MDA-MB-468): 1.06 µM
GI50 (NCI-H522): 1.5 µM
GI50 (UACC-62): 5.15 µM
GI50 (SK-OV-3): 26.8 µM
GI50 (SK-MEL-28): 3.1 µM
GI50 (Malme-3M): 2.95 µM
GI50 (OVCAR-4): 2.64 µM
GI50 (OVCAR-8): 3.37 µM
GI50 (UO-31): 3.56 µM
GI50 (OVCAR-5): 6.36 µM
GI50 (A498): 2.77 µM
GI50 (SF-268): 13.2 µM
fold change (FC) [1]: 2
GI50 (LOX IMVI): 2.95 µM
GI50 (M14): 3.44 µM
GI50 (UACC-257): 3.57 µM
GI50 (OVCAR-3): 4.32 µM
GI50 (CAKI-1): 2.83 µM
GI50 (U-251): 16.7 µM
GI50 (CCRF-CEM): 1.4 µM
GI50 (MCF7): 2.22 µM
GI50 (HCT-116): 1.69 µM
CC50 [2]: 4.1 µM
GI50 (SK-MEL-2): 13.1 µM
GI50 (MDA-MB-231): 7.13 µM
GI50 (MOLT-4): 3.33 µM
GI50 (SW-620): 2.33 µM
GI50 (Hs-578T): 20.4 µM
GI50 (SNB-19): 14 µM
GI50 (KM12): 12.1 µM
GI50 (SNB-75): 11.2 µM
GI50 (ACHN): 2.64 µM
GI50 (BT-549): 1.82 µM
GI50 (MDA-MB-435): 4.84 µM
GI50 (HCC 2998): 11.5 µM
GI50 (HCT-15): 1.7 µM
GI50 [3]: 3.1 µM
GI50 (786-0): 6.64 µM
GI50 (SN12C): 4.8 µM
GI50 (A549): 15.8 µM
GI50 (RPMI-8226): 4.74 µM
GI50 (NCI/ADR-RES): 13.1 µM
GI50 (TK-10): 3.9 µM
GI50 (NCI-H23): 5.24 µM
GI50 (SF-295): 14.7 µM

C=C1C(=O)O[C@H]2[C@H]1CC/C(COC(=O)CCC(=O)NCCCCCCCCNC(=O)CCC(=O)OC/C1=C/CC[C@@]3(C)O[C@H]3[C@H]3OC(=O)C(=C)[C@@H]3CC1)=C\CC[C@@]1(C)O[C@@H]21
GI50 (PC-3): 3.64 µM
GI50 (NCI-H226): 2.06 µM
GI50 (RXF 393): 0.85 µM
GI50 (SF-539): 2.43 µM
GI50 (T47D): 1.51 µM
GI50 (HT-29): 1.64 µM
GI50 (NCI-H460): 5 µM
GI50 (SK-MEL-5): 3.13 µM
GI50 (NCI-H322M): 16.3 µM
GI50 (COLO 205): 1.35 µM
GI50 (HL-60(TB)): 0.63 µM
GI50 (K562): 0.97 µM
GI50 (HOP-92): 1.58 µM
GI50 (DU-145): 1.92 µM
GI50 (SR): 0.41 µM
GI50 (MDA-MB-468): 1.33 µM
GI50 (NCI-H522): 0.48 µM
GI50 (UACC-62): 1.97 µM
GI50 (SK-OV-3): 6.45 µM
GI50 (SK-MEL-28): 1.65 µM
GI50 (Malme-3M): 2.04 µM
GI50 (OVCAR-4): 1.64 µM
GI50 (OVCAR-8): 2.9 µM
GI50 (UO-31): 10.9 µM
GI50 (OVCAR-5): 1.82 µM
GI50 (A498): 6.72 µM
GI50 (SF-268): 3.34 µM
GI50 (LOX IMVI): 1.37 µM
GI50 (M14): 1.79 µM
GI50 (UACC-257): 1.76 µM
GI50 (OVCAR-3): 1.5 µM
GI50 (CAKI-1): 12.7 µM
GI50 (U-251): 3.03 µM
GI50 (CCRF-CEM): 0.32 µM
GI50 (MCF7): 0.77 µM
GI50 (HCT-116): 1.54 µM
CC50 [2]: 11 µM
GI50 (SK-MEL-2): 2.25 µM
GI50 (MDA-MB-231): 1.97 µM
GI50 (MOLT-4): 2.11 µM
GI50 (SW-620): 1.22 µM
GI50 (Hs-578T): 3.88 µM
GI50 (SNB-19): 4.15 µM
GI50 (KM12): 9.46 µM
GI50 (SNB-75): 2.02 µM
GI50 (ACHN): 3.13 µM
GI50 (BT-549): 1.23 µM
GI50 (MDA-MB-435): 1.8 µM
GI50 (HCC 2998): 4.12 µM
GI50 (HCT-15): 3.6 µM
GI50 [3]: 1 µM
GI50 (786-0): 1.62 µM
GI50 (SN12C): 3.74 µM
GI50 (A549): 18.5 µM
GI50 (RPMI-8226): 1.67 µM
GI50 (NCI/ADR-RES): 33.5 µM
GI50 (TK-10): 20.8 µM
GI50 (NCI-H23): 2.99 µM
GI50 (SF-295): 15.1 µM

From ChEMBL document CHEMBL4033723, “Succinamide derivatives of melampomagnolide B and their anti-cancer activities” (2017)
